How the values were obtained:
Assay in all cases: relative viability (nuclei count vs DMSO), 5 days (fraction); higher = more cells survive
DM3189 + Navitoclax = compound: C1CN(CCN1)C2=CC=C(C=C2)C3=CN4C(=C(C=N4)C5=CC=NC6=CC=CC=C56)N=C3 [DM3189] + CC1(C)CCC(c2ccc(Cl)cc2)=C(CN2CCN(c3ccc(C(=O)NS(=O)(=O)c4ccc(N[C@H](CCN5CCOCC5)CSc5ccccc5)c(S(=O)(=O)C(F)(F)F)c4)cc3)CC2)C1 [Navitoclax] (partner 0.5 µM)
Summary of the method: (§1)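 The day after seeding in 1536-well plates, lung cancer cell lines were treated by pin tool with a single drug, or with a fixed anchor-drug dose together with five library-drug doses (not always all listed) in √10 steps. After 5 days, a combined fix-and-stain solution (final 0.05% Triton X-100, 1% formaldehyde, 1 ug/ml Hoechst) was added. Nuclei counted on 4× images gave relative viability as treated counts over vehicle counts, reported as the median of duplicate plates.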

DM3189 + Decitabine = compound: C1CN(CCN1)C2=CC=C(C=C2)C3=CN4C(=C(C=N4)C5=CC=NC6=CC=CC=C56)N=C3 [DM3189] + Nc1ncn([C@H]2C[C@H](O)[C@@H](CO)O2)c(=O)n1 [Decitabine] (partner 2 µM)
Summary of the method: as §1

DM3189 + Luminespib = compound: C1CN(CCN1)C2=CC=C(C=C2)C3=CN4C(=C(C=N4)C5=CC=NC6=CC=CC=C56)N=C3 [DM3189] + CCNC(=O)c1noc(-c2cc(C(C)C)c(O)cc2O)c1-c1ccc(CN2CCOCC2)cc1 [Luminespib] (partner 0.01 µM)
Summary of the method: as §1

DM3189 + AZD7762 = compound: C1CN(CCN1)C2=CC=C(C=C2)C3=CN4C(=C(C=N4)C5=CC=NC6=CC=CC=C56)N=C3 [DM3189] + NC(=O)Nc1cc(-c2cccc(F)c2)sc1C(=O)N[C@H]1CCCNC1 [AZD7762] (partner 0.2 µM)
Summary of the method: as §1

DM3189 + Trametinib = compound: C1CN(CCN1)C2=CC=C(C=C2)C3=CN4C(=C(C=N4)C5=CC=NC6=CC=CC=C56)N=C3 [DM3189] + CC(=O)Nc1cccc(-n2c(=O)n(C3CC3)c(=O)c3c(Nc4ccc(I)cc4F)n(C)c(=O)c(C)c32)c1 [Trametinib] (partner 0.02 µM)
Summary of the method: as §1

| Cell Line | relative viability (DM3189 + Navitoclax; first compound 0.08 µM) | relative viability (DM3189 + Navitoclax; first compound 0.253 µM) | relative viability (DM3189 + Navitoclax; first compound 0.8 µM) | relative viability (DM3189 + Navitoclax; first compound 2.53 µM) | relative viability (DM3189 + Decitabine; first compound 0.08 µM) | relative viability (DM3189 + Decitabine; first compound 0.253 µM) | relative viability (DM3189 + Decitabine; first compound 0.8 µM) | relative viability (DM3189 + Decitabine; first compound 2.53 µM) | relative viability (DM3189 + Luminespib; first compound 0.08 µM) | relative viability (DM3189 + Luminespib; first compound 0.253 µM) | relative viability (DM3189 + Luminespib; first compound 0.8 µM) | relative viability (DM3189 + Luminespib; first compound 2.53 µM) | relative viability (DM3189 + AZD7762; first compound 0.08 µM) | relative viability (DM3189 + AZD7762; first compound 0.253 µM) | relative viability (DM3189 + AZD7762; first compound 0.8 µM) | relative viability (DM3189 + AZD7762; first compound 2.53 µM) | relative viability (DM3189 + Trametinib; first compound 0.08 µM) | relative viability (DM3189 + Trametinib; first compound 0.253 µM) | relative viability (DM3189 + Trametinib; first compound 0.8 µM) | relative viability (DM3189 + Trametinib; first compound 2.53 µM) |
| --- | --- | --- | --- | --- | --- | --- | --- | --- | --- | --- | --- | --- | --- | --- | --- | --- | --- | --- | --- | --- |
| A549 | 1.23 | 1.27 | 1.28 | 1.3 | 0.26 | 0.282 | 0.251 | 0.325 | – | – | – | – | – | – | – | – | – | – | – | – |
| ABC-1 | – | – | – | – | 1.1 | 1.08 | 1.21 | 1.04 | 0.516 | 0.489 | 0.531 | 0.278 | 0.914 | 0.679 | 0.742 | 1.06 | – | – | – | – |
| COR-L23 | 1.09 | 0.961 | 0.893 | 1 | 0.424 | 0.39 | 0.348 | 0.434 | 1.12 | 0.658 | 0.562 | 0.521 | – | – | – | – | 0.707 | 0.507 | 0.529 | 0.549 |
| COR-L 105 | 0.861 | 0.675 | 0.729 | 0.816 | 0.781 | 0.689 | 0.535 | 0.635 | 0.812 | 0.83 | 0.705 | 0.778 | – | – | – | – | 0.467 | 0.488 | 0.471 | 0.504 |
| LCLC-103H | – | – | – | – | 0.765 | 0.746 | 0.691 | 0.721 | 0.974 | 0.985 | 0.933 | 0.999 | 0.909 | 0.817 | 0.764 | 0.818 | 0.748 | 0.653 | 0.685 | 0.681 |
| NCI-H358 | – | – | – | – | 0.226 | 0.191 | 0.217 | 0.194 | 0.463 | 0.218 | 0.251 | 0.257 | 0.5 | 0.502 | 0.517 | 0.444 | 0.133 | 0.111 | 0.129 | 0.129 |
| NCI-H520 | 1 | 0.728 | 0.752 | 0.628 | 0.534 | 0.399 | 0.521 | 0.336 | 0.238 | 0.228 | 0.214 | 0.214 | – | – | – | – | 0.672 | 0.413 | 0.43 | 0.321 |
| NCI-H522 | – | – | – | – | 0.592 | 0.652 | 0.667 | 0.636 | 1.31 | 0.984 | 1.27 | 1.16 | 0.949 | 0.775 | 0.648 | 0.704 | 0.777 | 0.777 | 0.656 | 0.747 |
| NCI-H650 | – | – | – | – | 0.288 | 0.313 | 0.242 | 0.292 | 0.761 | 0.729 | 0.701 | 0.767 | 0.937 | 0.956 | 1.05 | 1 | 0.988 | 0.826 | 0.749 | 0.877 |
| NCI-H661 | – | – | – | – | 0.673 | 0.519 | 0.576 | 0.673 | 1.07 | 0.922 | 0.959 | 0.78 | – | – | – | – | 0.7 | 0.581 | 0.642 | 0.623 |
| NCI-H1650 | 1.24 | 1.11 | 1.21 | 1.13 | 0.367 | 0.462 | 0.366 | 0.425 | 0.183 | 0.183 | 0.188 | 0.197 | – | – | – | – | 0.749 | 0.608 | 0.677 | 0.738 |
| NCI-H1703 | 1.08 | 1.05 | 1 | 0.709 | – | – | – | – | – | – | – | – | 0.122 | 0.191 | 0.119 | 0.135 | – | – | – | – |
| NCI-H2009 | 1.17 | 1.19 | 1.06 | 1.23 | 0.416 | 0.354 | 0.412 | 0.417 | 1.06 | 1.01 | 0.932 | 1.06 | – | – | – | – | 0.276 | 0.268 | 0.263 | 0.23 |
| NCI-H2023 | 0.992 | 1.04 | 0.909 | 0.842 | 0.229 | 0.225 | 0.205 | 0.201 | 0.811 | 0.863 | 1.09 | 0.663 | – | – | – | – | 0.469 | 0.534 | 0.532 | 0.374 |
| NCI-H2228 | 0.96 | 0.952 | 1.1 | 1.3 | – | – | – | – | 0.112 | 0.132 | 0.144 | 0.167 | – | – | – | – | 0.476 | 0.494 | 0.581 | 0.236 |
| NCI-H2342 | – | – | – | – | 0.747 | 0.679 | 0.718 | 0.688 | 0.916 | 0.66 | 0.845 | 0.702 | 0.44 | 0.533 | 0.54 | 0.478 | 0.805 | 0.843 | 0.844 | 0.74 |
| SK-LU-1 | 0.686 | 0.595 | 0.564 | 0.397 | 0.567 | 0.585 | 0.537 | 0.451 | 0.181 | 0.194 | 0.176 | 0.196 | – | – | – | – | 0.441 | 0.402 | 0.429 | 0.378 |
| SK-MES-1 | 1.21 | 1.28 | 1.08 | 1.18 | 0.461 | 0.418 | 0.317 | 0.361 | 0.848 | 0.82 | 0.611 | 0.412 | – | – | – | – | 0.54 | 0.485 | 0.481 | 0.548 |
| SW 1573 | 1.11 | 0.964 | 0.901 | 1.25 | 0.616 | 0.381 | 0.46 | 0.263 | 0.261 | 0.232 | 0.192 | 0.33 | – | – | – | – | 0.677 | 0.6 | 0.53 | 0.539 |
| UMC-11 | 0.287 | 0.322 | 0.295 | 0.265 | 0.616 | 0.506 | 0.602 | 0.511 | 1.01 | 0.986 | 0.882 | 0.685 | – | – | – | – | 0.745 | 0.706 | 0.59 | 0.62 |
